Laboratory results as given in US20090149455A1, “Use of Triazolopyrimidines for Controlling Plant Diseases on Legumes” (Bayer CropScience AG, priority 2005, published 2009).

Assay: log p
Format: physicochemical

C=C(C)CNc1c(-c2c(F)c(F)c(F)c(F)c2F)c(Cl)nc2ncnn12 [Example 104]
log p: 3.09

Fc1ccc(-c2c(Cl)nc3ncnn3c2N2CCSCC2)c(F)c1 [Example 196]
log p: 2.8

CC1CCN(c2c(-c3ccccc3)c(Cl)nc3ncnn23)CC1 [Example 253]
log p: 3.47

CN1CCN(c2c(-c3c(F)c(F)c(F)c(F)c3F)c(Cl)nc3ncnn23)CC1 [Example 197]
log p: 1.43

CC(C)Nc1c(-c2ccc(F)cc2F)c(Cl)nc2ncnn12 [Example 145]
log p: 2.56

CN1CCN(c2c(-c3c(F)cc(C(F)(F)F)cc3Cl)c(Cl)nc3ncnn23)CC1 [Example 174]
log p: 1.68

CC(C)CC(C)Nc1c(-c2c(F)cc(F)cc2F)c(Cl)nc2ncnn12 (centres unmarked) [Example 80]
log p: 3.59

C[C@H](Nc1c(-c2c(F)cc(F)cc2F)c(Cl)nc2ncnn12)C(C)(C)C [Example 68]
log p: 3.54

C=C(C)CN(CC)c1c(-c2cc(C(F)(F)F)ccc2Cl)c(Cl)nc2ncnn12 [Example 100]
log p: 4.12

CC1CCN(c2c(-c3c(F)cccc3Cl)c(Cl)nc3ncnn23)NC1 (centres unmarked) [Example 267]
log p: 3.01

C[C@H](Nc1c(-c2cc(C(F)(F)F)ccc2C(F)(F)F)c(Cl)nc2ncnn12)C(F)(F)F [Example 39]
log p: 3.51

Fc1cc(C(F)(F)F)cc(Cl)c1-c1c(Cl)nc2ncnn2c1N1CCC(C(F)(F)F)CC1 [Example 178]
log p: 4.18

Cc1cc(C)c(-c2c(Cl)nc3ncnn3c2NC(C)C(F)(F)F)c(C)c1 (centres unmarked) [Example 35]
log p: 3.55

CC1CCCN(c2c(-c3ccc(F)cc3F)c(Cl)nc3ncnn23)C1 (centres unmarked) [Example 189]
log p: 3.52

Fc1cc(F)c(-c2c(Cl)nc3ncnn3c2N2CCC(C(F)(F)F)CC2)c(F)c1 [Example 160]
log p: 3.41

Fc1ccccc1-c1c(Cl)nc2ncnn2c1N1CCC(C(F)(F)F)CC1 [Example 166]
log p: 3.23

CC(C)Nc1c(-c2ccccc2Cl)c(Cl)nc2ncnn12 [Example 131]
log p: 2.65

Fc1cccc(Cl)c1-c1c(Cl)nc2ncnn2c1N1CCCC=N1 [Example 244]
log p: 2.58

C[C@H](Nc1c(-c2cccc3c2OC(F)(F)O3)c(Cl)nc2ncnn12)C(F)(F)F [Example 55]
log p: 3.16

CN(C)c1c(-c2c(F)c(F)c(F)c(F)c2F)c(Cl)nc2ncnn12 [Example 155]
log p: 2.74

CC1CNN(c2c(-c3c(F)cccc3Cl)c(Cl)nc3ncnn23)CC1C (centres unmarked) [Example 264]
log p: 3.32

CC(Nc1c(-c2c(F)cc(F)cc2F)c(Cl)nc2ncnn12)C(F)(F)F (centres unmarked) [Example 29]
log p: 2.88

Fc1ccc(-c2c(Cl)nc3ncnn3c2N2CCCCC2)c(F)c1 [Example 194]
log p: 3.14

C[C@@H](Nc1c(-c2cc(F)ccc2F)c(Cl)nc2ncnn12)C(C)(C)C [Example 72]
log p: 3.38

Fc1c(F)c(F)c(-c2c(Cl)nc3ncnn3c2N2CCSCC2)c(F)c1F [Example 209]
log p: 3.29

Clc1ccc(-c2c(Cl)nc3ncnn3c2N2CCOCC2)c(Cl)c1 [Example 254]
log p: 2.78

CC(C)[C@H](C)Nc1c(-c2c(F)cc(F)cc2F)c(Cl)nc2ncnn12 [Example 77]
log p: 3.17

Fc1ccc(-c2c(Cl)nc3ncnn3c2N2CCCCO2)c(F)c1 [Example 205]
log p: 2.84

CC1C=NN(c2c(-c3c(F)cccc3Cl)c(Cl)nc3ncnn23)CC1C (centres unmarked) [Example 275]
log p: 3.15

CC1CCN(c2c(-c3c(F)cccc3Cl)c(C#N)nc3ncnn23)CC1 [Example 280]
log p: 3.37

C=C(C)CN(CC)c1c(-c2ccccc2Cl)c(Cl)nc2ncnn12 [Example 105]
log p: 3.69

Clc1nc2ncnn2c(N2CCOCC2)c1-c1ccccc1 [Example 252]
log p: 2.03

CC(Nc1c(-c2c(F)cccc2Cl)c(Cl)nc2ncnn12)C(F)(F)F (centres unmarked) [Example 30]
log p: 2.85

CC(Nc1c(-c2ccc(F)c(Cl)c2)c(Cl)nc2ncnn12)C(F)(F)F (centres unmarked) [Example 43]
log p: 3.18

C[C@H](Nc1c(-c2c(Cl)c(F)cc(C(F)(F)F)c2Cl)c(Cl)nc2ncnn12)C(F)(F)F [Example 44]
log p: 3.74

C[C@H](Nc1c(-c2ccc(F)cc2C(F)(F)F)c(Cl)nc2ncnn12)C(F)(F)F [Example 59]
log p: 3.07

CC1C=CCN(c2c(-c3c(F)cc(F)cc3F)c(Cl)nc3ncnn23)O1 (centres unmarked) [Example 246]
log p: 3.12

C[C@@H](Nc1c(-c2ccc(F)cc2Cl)c(Cl)nc2ncnn12)C(F)(F)F [Example 61]
log p: 3

CC1CCCN1c1c(-c2ccc(F)cc2F)c(Cl)nc2ncnn12 (centres unmarked) [Example 184]
log p: 2.99

Fc1cccc(Cl)c1-c1c(Cl)nc2ncnn2c1N1CCCN1 [Example 260]
log p: 2.29

CC(C)(C)Nc1c(-c2c(F)cc(F)cc2F)c(Cl)nc2ncnn12 [Example 154]
log p: 3.05

CC(Nc1c(-c2c(F)cc(F)cc2F)c(Br)nc2ncnn12)C(F)(F)F (centres unmarked) [Example 66]
log p: 2.9

Fc1c(F)c(F)c(-c2c(Cl)nc3ncnn3c2NCC(F)(F)F)c(F)c1F [Example 113]
log p: 3

CC(C)(C)CNc1c(-c2ccccc2)c(Cl)nc2ncnn12 [Example 109]
log p: 3.17

C[C@H](Nc1c(-c2cc(SC(F)(F)F)ccc2Cl)c(Cl)nc2ncnn12)C(F)(F)F [Example 50]
log p: 3.78

C=CCN(CC)c1c(-c2c(F)cc(C(F)(F)F)cc2Cl)c(Cl)nc2ncnn12 [Example 13]
log p: 4.06

C=C(C)CN(CC)c1c(-c2cccc3c2OC(F)(F)O3)c(Cl)nc2ncnn12 [Example 101]
log p: 3.9

CC1CCN(c2c(-c3c(F)cccc3Cl)c(Cl)nc3ncnn23)CC1 [Example 158]
log p: 3.68

Fc1ccc(-c2c(Cl)nc3ncnn3c2N2CCCCN2)c(C(F)(F)F)c1 [Example 249]
log p: 2.98

Fc1ccccc1-c1c(Cl)nc2ncnn2c1N1CCCC1 [Example 163]
log p: 2.49

C[C@H](Nc1c(-c2ccc(C(F)(F)F)c(F)c2F)c(Cl)nc2ncnn12)C(F)(F)F [Example 42]
log p: 3.52

CC1CN(c2c(-c3c(F)c(F)c(F)c(F)c3F)c(Cl)nc3ncnn23)CC(C)O1 (centres unmarked) [Example 206]
log p: 3.33

C[C@H](Nc1c(-c2ccccc2Cl)c(Cl)nc2ncnn12)C(F)(F)F [Example 58]
log p: 2.87

CC1C=NN(c2c(-c3c(F)cc(F)cc3F)c(Cl)nc3ncnn23)CC1C (centres unmarked) [Example 276]
log p: 3.14

CCC(C)Nc1c(-c2ccccc2F)c(Cl)nc2ncnn12 (centres unmarked) [Example 4]
log p: 2.73

Cc1cc(C)n(-c2c(-c3c(F)cccc3Cl)c(Cl)nc3ncnn23)n1 [Example 268]
log p: 2.87

CC1CC(C)CN(c2c(-c3c(F)cc(C(F)(F)F)cc3Cl)c(Cl)nc3ncnn23)C1 (centres unmarked) [Example 180]
log p: 4.79

CC1CCCN(c2c(-c3c(F)cc(C(F)(F)F)cc3Cl)c(Cl)nc3ncnn23)C1 (centres unmarked) [Example 181]
log p: 4.46

Cc1cc(C)n(-c2c(-c3ccc(F)cc3Cl)c(Cl)nc3ncnn23)n1 [Example 269]
log p: 2.94

CC1CCN(c2c(-c3c(F)cc(F)cc3F)c(Cl)nc3ncnn23)NC1 (centres unmarked) [Example 274]
log p: 3.05

Fc1cc(F)c(-c2c(Cl)nc3ncnn3c2N2CCCCO2)c(F)c1 [Example 201]
log p: 2.92

C[C@H](Nc1c(-c2ccc(F)cc2F)c(Cl)nc2ncnn12)C(F)(F)F [Example 52]
log p: 2.81

CN(C)c1c(-c2ccccc2F)c(Cl)nc2ncnn12 [Example 85]
log p: 2.18

CC(Nc1c(-c2c(F)cc(F)cc2F)c(Cl)nc2ncnn12)C(C)(C)C (centres unmarked) [Example 67]
log p: 3.53

C=C(C)CN(CC)c1c(-c2ccc(F)cc2F)c(Cl)nc2ncnn12 [Example 93]
log p: 3.54

CC(C)Nc1c(-c2ccc(F)cc2Cl)c(Cl)nc2ncnn12 [Example 142]
log p: 2.79

CNc1c(-c2c(F)c(F)c(F)c(F)c2F)c(Cl)nc2ncnn12 [Example 84]
log p: 2.41

CC1CC(C)CN(c2c(-c3ccc(F)cc3F)c(Cl)nc3ncnn23)C1 (centres unmarked) [Example 187]
log p: 3.9
